Test results from patent US20080275076A1, “Pharmaceutical Compositions Comprising Sirolimus and/or an Analogue Thereof” (priority 2005, published 2008).
Where two headings read alike, the source gives them in different places.

How the values were obtained:
[1] = Solubility of sirolimus in various vehicles at 70° C. (visual inspection); type: physicochemical
Procedure: In the following table is given the solubility of sirolimus in various vehicles (please note that the solubility is determined by visual inspection): […]

[2] = cited from earlier work

% Sirolimus dissolved 70° C. ([1]; vehicle Gelucire 44/14): 2.5%
% Sirolimus dissolved 70° C. ([1]; vehicle Monomuls 90 35): 2.2%
% Sirolimus dissolved 70° C. ([1]; vehicle Monomuls 90L12): 3.9%
% Sirolimus dissolved 70° C. ([1]; vehicle Monomuls 90 L12/Rylo MD50 (10:90)): 2.5%
% Sirolimus dissolved 70° C. ([1]; vehicle PEG 6000): 1.5%
% Sirolimus dissolved 70° C. ([1]; vehicle PEG 6000/Poloxamer 188 (70:30)): 2.4%
% Sirolimus dissolved 70° C. ([1]; vehicle Poloxamer 188): 1.0%
% Sirolimus dissolved 70° C. ([1]; vehicle Rylo MD50): 1.5%
Structure (SMILES): CO[C@H]1C[C@@H]2CC[C@@H](C)[C@@](O)(O2)C(=O)C(=O)N2CCCC[C@H]2C(=O)O[C@H]([C@H](C)C[C@@H]2CC[C@@H](O)[C@H](OC)C2)CC(=O)[C@H](C)/C=C(\C)[C@@H](O)[C@@H](OC)C(=O)[C@H](C)C[C@H](C)/C=C/C=C/C=C/1C [Sirolimus]
mean time-to-peak concentration (tmax) ([2]; multiple oral doses in renal transplant recipients): approximately 2 hours
mean time-to-peak concentration (tmax) ([2]; oral, single dose in healthy subjects): approximately 1 hour
